In PMC3545992, “Trisubstituted Pyrazolopyrimidines as Novel Angiogenesis Inhibitors” (PLoS ONE, 2013):
Read-outs that look alike come from different tables or passages of the source.

What was measured:
HUVECs [1] = experiment: Scratch assay (migration assay); assay type: cell-based, human
Protocol: A: HMEC-1 cells were seeded in the same density as for the proliferation assay and treated with the respective compound at 30 µM for 72 h to test whether reduced cell numbers in the proliferation assay are due to inhibition of proliferation or to excessive cell death. No increase of detached, obviously dead or propidium iodide positive cells was detected. B and C: Confluent layers of HUVECs were scratched and the cells were allowed to migrate for 16 h in the presence or absence of 10 µM of the compounds. B: The columns indicate the area re-covered by migrating cells (n = 3, mean ± SEM, * p<0.05, One Way ANOVA, Dunnett). C: Scratches at endpoint, representative images taken out of three experiments.
HUVECs were seeded into a 24-well plate. After reaching confluency, cells were scratched using a 100 µl pipette tip. The wounded monolayers were washed twice with PBS containing Ca^2+/Mg^2+; then growth medium containing the indicated concentration of the compounds was added. After 16 h of migration, cells were washed and subsequently fixed with 4% paraformaldehyde. […] Images were taken using the TILLvisON system (TILL Photonics GmbH, Gräfelfing, Germany) and a CCD-camera connected to an Axiovert 200 microscope (Zeiss, Oberkochen, Germany). Quantitative image analysis of the cell covered area was done by Wimasis GmbH, Munich. A completely closed scratch was set as 100% migration, the area of the original open scratch was set as 0% migration.

HMEC-1 cells = experiment: Crystal violet proliferation assay; assay type: cell-based, human; conditions: HMEC-1, 72 h, read-out: IC50 endothelial cell proliferation
Protocol: HMEC-1 cells were seeded to a density of 1,500 cells/well. After 24 h of incubation, a zero point control was stained with crystal violet. The remaining cells were left untreated as positive control or treated with 0.3-1-3-10–30 µM of the indicated compounds. After 72 h additional incubation, relative proliferation was determined by crystal violet staining and quantified as absorption at 550 nm.
HMEC-1 were seeded into 96-well-plates (1,500 cells/well). After 24 h, the cells were stimulated with the indicated compounds. At the same time point, cells in a reference plate were stained with crystal violet, serving as initial cell number. After 72 hours of stimulation, cells were fixed and stained with crystal-violet solution for 10 minutes, washed with water, and air dried. Crystal violet was eluted with dissolving buffer and absorbance was measured at 550 nm (Tecan Sunrise Absorbance reader, TECAN, Crailsheim, Germany). In a parallel series of experiments, cells seeded at the same cell density as in the proliferation assays were treated with 30 µM of the respective compound for 72 h. Afterwards, 10 µg/ml propidium iodide was added for 30 min to counterstain cells for membrane integrity. Phase contrast and fluorescence images were obtained with an inverted Nikon microscope (Ti, Nikon, Düsseldorf, Germany) equipped with a 10x objective.

HUVECs [2] = experiment: Cell viability assay (CellTiter-Blue) in confluent HUVECs; assay type: cell-based, human; conditions: 30 µM, 16 h
Protocol: Figure 2 Cdk5 is expressed in HUVECs and HMEC-1 cells, and the compounds are not cytotoxic to endothelial cells at concentrations used in functional assays. A: Cdk5 protein expression in endothelial cells in comparison to human cortex. Cdk5 protein amount was analyzed by Western blot in samples of human cortex (HC), confluent HUVECs (HU) and HMEC-1 (HM). β-actin served as a loading control and for normalization of protein amount. Relative quantification (left panel) and one representative image (right panel) of three individual blots are shown. Note the much lower protein loading in the HC sample in the right panel. (n = 3, mean ± SEM, p>0.05, One Way ANOVA, Dunnett). B: Confluent HUVECs were treated for 16 h with 10 or 30 µM of the indicated compounds or left untreated as control. After addition of CellTiter-BlueTM Reagent, cells were incubated for 4 h and fluorescence was measured at 560 nm (n = 3, mean ± SEM, * p<0.05, One Way ANOVA, Dunnett).
HUVECs were seeded in 96-well plates. After reaching confluency, the cells were treated for 16 h with the indicated compounds or left untreated as control. After addition of CellTiter-Blue^TM Reagent (Promega Corporation, Madison, WI, USA), cells were incubated for additional 4 h and fluorescence was measured at 560 nm in a plate-reading photometer (SpectraFluor Plus; Tecan, Crailsheim, Germany).

endothelial cells [3] = system: endothelial cells; design: method as in PMID 20826806; conditions: 10 µM; cited from earlier work
endothelial cells [4] = system: endothelial cells; design: method as in PMID 21487803; conditions: cited from earlier work

CC(C)c1n[nH]c2c(NCc3ccccc3N)nc(NC3CCCCC3N)nc12 (centres unmarked) [LGR 1430, 7-(2-Aminobenzyl)amino-5-[(2-E/Z-aminocyclohexyl)amino]-3-isopropyl-1(2)H-pyrazolo-[4,3-d]pyrimidine]
effect on migration (in words) (HUVECs [1]; 30 µM, data not shown): no detectable effect
IC50 (HMEC-1 cells; Homo sapiens): 6.16 µM

CC(C)c1n[nH]c2c(NCc3ccccc3)nc(NC[C@@H](C)O)nc12 [LGR 1667, 7-Benzylamino-5(R)-[(2-hydroxypropyl)amino]-3-isopropyl-1(2)H-pyrazolo[4,3-d]pyrimidine]
IC50 (HMEC-1 cells; Homo sapiens): 9.54 µM

CC(C)c1n[nH]c2c(NCc3ccccc3N)nc(NC[C@H](C)O)nc12 [LGR 1695, 7-(2-Aminobenzyl)amino-5(S)-[(2-hydroxypropyl)amino]-3-isopropyl-1(2)H–pyrazolo[4,3-d]pyrimidine]
cell viability in comparison to control (HUVECs [2]): weak but significant decrease of viability
IC50 (HMEC-1 cells; Homo sapiens): 10.2 µM

CC(C)n1cnc2c(NCc3ccccc3N)nc(NC[C@@H](C)O)nc21 [LGR 1730]
cell viability in comparison to control (HUVECs [2]): weak but significant decrease of viability
effect on endothelial cell migration (in words) (HUVECs [1]; 10 µM, 16 h, HUVECs): no significant impact
IC50 (HMEC-1 cells): 18.2 µM
IC50 (HMEC-1 cells; Homo sapiens): ~20 µM

CC[C@H](CO)Nc1nc(NCc2ccccc2)c2ncn(C(C)C)c2n1 [roscovitine, (R)-roscovitine]
reduction of migration (endothelial cells [3]): 20%
concentration at which proliferation only started to be reduced (endothelial cells [4]): 30 µM
